From patent US10662156B2, “Guanidine derivative and medical use thereof” (Toray Industries, Inc., priority 2016, dated 2020)
Counter-ions that a name gives are not always drawn.

Target: recombinant GST fusion MALT1 (human MALT1) (Homo sapiens (Human), UniProt Q9UDY8)
Assay: Evaluation of inhibition of protease activity of MALT1 (cleavage of fluorescent peptide substrate Ac-LRSR-AMC)
Format: biochemical
Conditions: substrate Ac-LRSR-AMC 20 μmol/L, 30° C. for 80 minutes
Summary of the method: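 GST-tagged full-length human MALT1 from E. coli ([…]) was preincubated with compound 30 min at room temperature. Buffer: MES, 150 mM NaCl, 10% sucrose, 0.1% CHAPS, 10 mM DTT, 1 mol/L ammonium citrate. Ac-LRSR-AMC (20 μM final) was then cleaved 80 min at 30 °C; AMC fluorescence (Ex 380/Em 460) gain gave % inhibition versus no-enzyme and DMSO controls.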

Sequence of recombinant GST fusion MALT1 (human MALT1) (Q9UDY8 whole entry, the tested form may be a part): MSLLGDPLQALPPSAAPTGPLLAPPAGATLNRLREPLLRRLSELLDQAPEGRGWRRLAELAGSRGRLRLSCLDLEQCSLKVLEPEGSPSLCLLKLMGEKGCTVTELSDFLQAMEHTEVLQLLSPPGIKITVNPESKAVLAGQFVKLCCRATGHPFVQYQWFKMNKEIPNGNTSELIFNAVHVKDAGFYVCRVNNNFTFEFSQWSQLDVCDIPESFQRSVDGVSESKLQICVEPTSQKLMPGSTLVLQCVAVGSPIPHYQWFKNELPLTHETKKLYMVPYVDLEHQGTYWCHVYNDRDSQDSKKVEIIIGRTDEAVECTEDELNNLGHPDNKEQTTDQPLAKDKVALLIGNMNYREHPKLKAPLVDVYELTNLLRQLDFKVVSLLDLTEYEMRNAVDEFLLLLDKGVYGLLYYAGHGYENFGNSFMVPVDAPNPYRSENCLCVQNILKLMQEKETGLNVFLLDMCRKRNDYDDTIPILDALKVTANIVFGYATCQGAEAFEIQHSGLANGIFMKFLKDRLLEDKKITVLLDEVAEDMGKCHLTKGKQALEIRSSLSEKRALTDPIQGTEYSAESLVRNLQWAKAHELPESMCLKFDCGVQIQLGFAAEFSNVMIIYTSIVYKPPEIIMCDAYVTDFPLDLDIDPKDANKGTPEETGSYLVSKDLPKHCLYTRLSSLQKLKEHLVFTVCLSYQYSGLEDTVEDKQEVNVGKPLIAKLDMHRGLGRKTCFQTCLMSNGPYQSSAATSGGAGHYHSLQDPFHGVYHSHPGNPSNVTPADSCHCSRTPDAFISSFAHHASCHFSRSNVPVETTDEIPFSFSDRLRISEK

Row | SMILES | IC50 [nM]
1 | N/C(=N\S(=O)(=O)c1cccc(O)c1)NCc1cnc(-c2ccc(Cl)cc2)c(-c2ccc(Cl)cc2)c1 [Compound of Example 96, N-(amino(((5,6-bis(4-chlorophenyl)pyridin-3-yl)methyl)amino)methylene)-3-hydroxybenzenesulfonamide Hydrochloride] | 2140
2 | NN/C(=N\S(=O)(=O)c1ccccc1)NCc1cnc(-c2ccc(Cl)cc2)c(-c2ccc(Cl)cc2)c1 [Compound of Example 38, N-((5,6-bis(4-chlorophenyl)pyridin-3-yl)methyl)-N′-(phenylsulfonyl)hydrazinecarboximidate] | 90
3 | CC(N/C(N)=N/S(=O)(=O)c1ccccc1)c1cnc(-c2ccc(Cl)cc2)c(-c2ccc(Cl)cc2)c1 (stereo not shown) [Compound of Example 46, N-(amino((1-(5,6-bis(4-chlorophenyl)pyridin-3-yl)ethyl)amino)methylene)benzenesulfonamide] | 539
4 | N/C(=N\S(=O)(=O)c1ccccc1F)NCc1cnc(-c2ccc(Cl)cc2)c(-c2ccc(Cl)cc2)c1 [Compound of Example 26, N-(amino(((5,6-bis(4-chlorophenyl)pyridin-3-yl)methyl)amino)methylene)-2-fluorobenzenesulfonamide] | 315
